For the molecule `COc1c(N2C[C@H]3CCOC[C@@]3(N)C2)c(F)cc2c(=O)c(C(=O)O)cn([C@@H]3C[C@@H]3F)c12`, the melting point fell in the range of 132 to 134 °C.

`COCCNc1cccc(C(N)=O)c1` showed a melting point of 89 to 91 °C. Consider `Clc1ccc(CC(OC2CCCC(Cn3ccnc3)O2)c2ccccc2)c(Cl)c1` (centres undefined), for which the melting point was 118 to 120 °C.

With `CCCCCCCCCCCCCCCCCCNC(=O)OCC(COC)CN(C(C)=O)S(=O)(=O)CCCI` (centres undefined), the melting point fell in the range of 71 to 72 °C. As for `COc1ncccc1-c1[nH]c2ccccc2c1C1CCN(S(=O)(=O)c2ccccc2)CC1`, the figure is 231 to 234 °C. In turn, `CCCN(CCC)C1Cc2c(OC)ccc3ncn(c23)C1` (centres undefined) showed a melting point of 46 to 49 °C. Then `CCOC(=O)c1ncc(Cl)cc1N`, with 140 to 142 °C. On to `O=c1ccn(-c2cccc(F)c2)nc1-c1ccnn1-c1ccccc1`, for which the melting point fell in the range of 170 to 171 °C. Turning to `CCOC(=O)c1c(Cl)c2cc(Cl)cnc2[nH]c1=O`, the melting point worked out at 228 °C. Then `Cc1c(-c2ccccc2)c(C2=CCNC2)c2oc(C3CC3)nc2c1C#N`, with 172 to 174 °C. As to `CS(=O)(=O)c1cccc(-c2ccccc2NC(=S)NC(=O)c2ccccc2)c1`, the melting point is 179 to 180 °C.

`Cc1cc(SC2=C(O)CC(C3CCCC3)(C3CCCC3)OC2=O)c(C(C)(C)C)cc1N` gave a melting point of 163 to 165 °C. On to `CC(C)(C)OC(=O)NCCOC(=O)COc1ccc(CCCCNC(N)=NC(=O)c2nc(Cl)c(N)nc2N)cc1`, for which the melting point fell in the range of 80 to 82 °C. `O=C(Nc1ccc(Oc2ccc(N(CC(=O)N3CCN(Cc4ccc5c(c4)OCO5)CC3)C(=O)C(F)(F)F)cc2)nc1)c1ccc(Cl)c(Cl)c1` registered a melting point of 211 to 213 °C. As for `O=C1Cc2cc(Cl)cc(Oc3ccccc3Cl)c2N1`, the figure is 196 to 198 °C; as for `Cc1nnc2n1-c1ccc(Br)cc1C(c1ccccc1)=NC2`, 268 to 270 °C; as for `CCc1nc2c(Cl)nc(C)cc2n1Cc1ccccc1`, 140 to 141 °C. Turning to `N#CC(Nc1cc(Cl)c(Cl)cc1Cl)c1ccccc1` (centres undefined), the melting point turned out to be 124 °C. The molecule `CCCCCCCCCCCCCCCCCCNC(=O)Nc1ccc(O)cc1` had a melting point of 144 °C.

For `CC(C)(O)c1nnc2ccc(-c3c(-c4ccc(F)cc4F)nc4n3CCC4)nn12`, the melting point lay in the range of 222 to 223 °C. `C=CCOC(=O)c1ccc(N=C(OC)c2ccc(OC)c(C34CC5CC(CC(C5)C3)C4)c2)cc1` had a melting point of 85 to 87 °C. Then `CCOc1cc(C=[N+]([O-])C2CCC2)ccc1OC`, with 113 °C; and `CCCCOCCOc1ccc(-c2ccc3c(c2)C=C(C(=O)Nc2ccc(/C(Cc4nccn4CCC)=N/OCC)cc2)CCN3CC(C)C)cc1`, with 156 °C.

`C=CCC1CC(NC(=O)C(F)(F)F)C(OC(=O)c2ccc([N+](=O)[O-])cc2)C(C)O1` (centres undefined): the melting point fell in the range of 138 to 139 °C. `C[C@]1(COc2ccc(N3CCN(Cc4ccc(C(F)(F)F)cc4)CC3)cc2)Cn2cc([N+](=O)[O-])nc2O1` yielded a melting point of 206 to 207 °C. The molecule `COC(=O)c1[nH]c2c(C)ccc(Cl)c2c1C(C)=O` had a melting point of 167 to 168 °C.

With `CS(=O)(=O)c1ccc(-c2sc(Br)cc2-c2ccc(F)cc2)cc1`, the melting point lay in the range of 141 to 145 °C. `CCOC(=O)c1oc(-c2ccccc2)cc(=O)c1Br` came in with a melting point of 135 °C. In the case of `Fc1cc(Cl)c2ccc(Cl)cc2n1`, the melting point was 105 to 106 °C. For the molecule `CN(Cc1ccc(Cl)c(Cl)c1)C(=O)C1=C(O)C(=O)N(CCC(=O)O)C1`, the melting point fell in the range of 183 to 184 °C. Regarding `COC(=O)c1ccc2c(c1)C=CC(=CCl)CO2`, the melting point lay within 72 to 77 °C. Then `CCCCn1c(=O)c2c(ncn2S(=O)(=O)CCCCl)n(CCCC)c1=O`, with 71 to 73 °C; and `Cc1cc(C#N)sc1-c1ccc2c(c1)C(C)(C)OC(C)N2` (centres undefined), with 145 to 146 °C; and `N#CCOc1ccc2cc(Br)ccc2c1Br`, with 130 to 132 °C.

`CCN1C(=O)C(C)(C)c2ccc(C(=O)Nc3ccncc3)cc21` returned a melting point of 209 to 211 °C. The molecule `Cc1cccc(N2CCN(CCc3c(C)nc4ccccn4c3=O)CC2)c1` registered a melting point of 95.5 to 96.5 °C. As for `NCCCc1csc(N=C2NCCCN2)n1`, the melting point was determined as 116 °C. Then `CNC(=O)c1cccc(Cl)c1Nc1nc(Nc2ccc3c(c2)CCCC(=O)N3CCOC)ncc1Cl`, with 136 to 157 °C; and `CCOC(=O)c1cc(=O)c2ccc(C)cc2o1`, with 62 to 64 °C.

For the molecule `CC12CCC3c4ccc(O)cc4CCC3C1CCC2=CCl` (centres undefined), the melting point is 130 to 133 °C. Molecule `COc1ccc(OCC2CCC(CBr)CC2)c(Cl)c1` (centres undefined) registered a melting point of 74 to 78 °C. In turn, `COc1ccc(Cl)cc1C(=O)Cl` displayed a melting point of 59 to 60 °C.

In turn, `COc1cc2[nH]c(C(=O)OCc3ccccc3)cc2c(C)c1C` came in with a melting point of 161 °C. In turn, `N=C(Nc1cc(Cl)cc(NC(=O)C=Cc2ccccc2Cl)c1)c1ccc(NCc2ccccn2)cc1` yielded a melting point of 119 to 122 °C. `CCOC(=O)C1=C(NC(=O)Nc2cc(C(=O)OC(C)C)c(Cl)cc2F)CCCC1` registered a melting point of 129 to 130 °C. For `CCCCCCCCCCS(=O)(=O)N[C@H]1CCCNC(=O)C1`, the melting point lay within 98 to 99 °C. Molecule `CCc1cccc2c1C(=O)NS2(=O)=O` displayed a melting point of 183 to 185 °C. Regarding `CCOCc1cc2cc(Cl)ccc2oc1=Nc1ccc(C)cc1`, the melting point is 76 to 77 °C. With `CS(=O)(=O)Nc1cc(N)c(F)cc1C#N`, the melting point amounted to 235 °C. Regarding `CCCCc1oc2ccccc2c1C(=O)Nc1ccc(-c2ccc(OCC(=O)O)cc2)cc1`, the melting point was 225 to 227 °C. `CSc1nc(N)nc(N2CCc3ccccc3CC2)c1C#N` showed a melting point of 164 to 168 °C.

Consider `COc1cc(OC)c2c(=O)[nH]c(-c3cc(C)c(OCCN4C(=O)NC(c5ccccc5)C4=O)c(C)c3)nc2c1` (centres undefined), for which the melting point fell in the range of 220 to 221 °C. As for `CCOC(=O)C(=O)Nc1ccc(N(C)C)cc1O`, the figure is 259 to 260 °C; as for `CCC1(Cc2ccccc2)CCNC1=O` (centres undefined), 89 to 90 °C. Then `COc1ccc(S(=O)(=O)N(CC(N)=O)c2ccc(Cl)cc2Cc2c(Cl)cccc2Cl)cc1OC`, with 195 °C; and `CCOC(=O)[C@H](Cc1ccc(-c2c(OC)cc(COS(C)(=O)=O)cc2OC)cc1)NC(=O)c1c(F)cccc1Cl`, with 104 to 107 °C; and `CCCCOc1c(C(=O)O)n(CC(C)C)c(=O)c2ccc(OCc3ccccc3)cc12`, with 151 to 152 °C. Then `CCOP(=O)(/C=C/c1cn(-c2ccccc2)nc1OCc1ccccc1)OCC`, with 89 to 90 °C; and `CCC(=O)c1ccc(Cl)c2nc3n(c12)CCCN3c1ccc(Cl)cc1Cl`, with 156 to 157 °C; and `Cc1ccc(NC2=C(C(=O)Nc3ccccc3)C(=O)OC2)cc1`, with 181 to 183 °C. `C1=C(c2ccc3c(c2)OCO3)CCN(Cc2n[nH]c3ccccc23)C1` returned a melting point of 139 to 141 °C. As for `CC(=O)c1cscc1O`, the figure is 44 to 47 °C; as for `COc1ccc(-c2nnc(N3CCN(C)CC3)nc2-c2ccc(OC)cc2)cc1`, 158 to 160 °C; as for `CCOC(=O)CCCC1(CCCC(=O)OCC)CC(=O)c2ccc(O)cc2O1`, 108 to 110 °C.

As a reminder, the melting point is the temperature, or range, at which the solid turns liquid.

(Values after a melting point compilation (Tetko et al.; mined from patent text by program, amines drawn as free bases though some values may be those of a salt).)
